Three compounds from publication PMC8291587, “Guanidine Derivatives: How Simple Structural Modification of Histamine H3R Antagonists Has Led to the Discovery of Potent Muscarinic M2R/M4R Antagonists” (ACS Chemical Neuroscience, 2021) can be followed below.

SMILES strings stand for the structures. Where “and” joins values, the source holds several entries; their conditions need not be identical. Identical values can stand only once.

For assay [1], the target named is T1, H1R (Cavia porcellus, UniProt P31389).
T1 construct: from tissue; host or cells: isolated distal ileum of male guinea pigs
The assay can be described thus: Ex vivo screening of histamine H1R antagonists on guinea pig ileum, variant with 0.05 μM atropine. Conditions: isolated guinea pig ileum, histamine as agonist. How it is done:
(§1) The second histamine receptor located in the guinea pig ileum is H1R. […] The H1R antagonistic effect was measured on isolated guinea pig ileum stimulated to contract by histamine.[37] To assess and exclude the influence of the ADS compounds on muscarinic receptors, two test variations were used: one with the addition of 0.05 μM atropine and one without.
(§2) Male guinea pigs, weighing 300–400 g, were euthanized by a blow to the neck. A 20–30 cm length of the distal ileum, apart from the terminal 5 cm, was rapidly removed and placed in phosphate buffer at room temperature (pH 7.4) containing (mM) NaCl (136.9), KCl (2.6), KH2PO4 (1.47), Na2HPO4 (9.58), and indomethacin (1 × 10^–6 mol/L). The intraluminal content was rinsed, and the isolated intestine was cut into 1.5–2 cm segments. The preparations were mounted isotonically in a 20 mL organ bath filled with Krebs buffer: composition (mM) NaCl (118), KCl (5.6), MgSO4 (1.18), CaCl2 (2.5), NaH2PO4·H2O (1.28), NaHCO3 (25), glucose (5.55), and indomethacin (3 × 10^–7 mol/L). […] The solution was continuously bubbled with a 95% O2:5% CO2 mixture and maintained at 37 °C under a constant load of 0.5 g (Hugo Sachs Hebel–Messvorsatz (Tl-2)/HF-modem; Hugo Sachs Elektronik, Hugstetten, Germany) connected to a pen recorder (Kipp & Zonen BD41, Delft, Holland). During an equilibration period of 40 min, Krebs buffer was changed every 10 min. The first cumulative concentration–response curve was determined for histamine (10 nM to 10 mM) at increasing concentrations spaced by 3- or 3.3-fold. The second to the fourth (or fifth) curves were measured in the presence of an increasing concentrations of antagonist (incubation time 10 min). The pA2 values were calculated according to Arunlakshana and Schild.[37] Statistical analysis was carried out with the Students’ t test. In all tests, a p < 0.05 was considered statistically significant.

The subject of assay [2] is M2R/M3R. The assay can be described thus: Ex vivo screening of muscarinic M2R/M3R antagonists on isolated guinea pig ileum (methacholine-induced contraction). Conditions: methacholine as agonist. How it is done: Another group of guinea pig intestinal receptors able to regulate smooth muscle contraction is that of the muscarinic receptors, including M2R and M3R. All compounds were tested on the muscarinic receptors using the same animal model. This approach is similar to measuring histamine H1R antagonist activity. Methacholine was used as a receptor agonist, while 1,1-dimethyl-4-diphenylacetoxypiperidinium iodide (4-DAMP) was used as a reference M3R antagonist. As methacholine is not selective according to M2R and M3R, it is not possible to precisely specify which one was responsible for the effect observed on the tissue preparations. Some authors often attribute the results to the minor M3R subtype (gpM2R:M3R = 4:1 or 5:1), which is generally associated with the contractions,[38] but such an overinterpretation may be misleading, as indicated by our further hM1R-hM5R radioligand binding assay results shown in Table 2. […] These findings partially explain the influence of ADS10227 on the contractility of guinea pig ileum following electrical stimulation. […] In subsequent studies, we tried to clarify this.
Male guinea pigs, weighing 300–400 g, were euthanized by a blow to the neck. A 20–30 cm length of the distal ileum, apart from the terminal 5 cm, was rapidly removed and placed in phosphate buffer at room temperature (pH 7.4) containing (mM) NaCl (136.9), KCl (2.6), KH2PO4 (1.47), Na2HPO4 (9.58), and indomethacin (1 × 10^–6 mol/L)). The intraluminal content was rinsed, and the isolated intestine was cut into 1.5–2 cm segments. The preparations were mounted isotonically in a 20 mL organ bath filled with Tyrode’s buffer: composition (mM) NaCl (137), KCl (2.7), MgCl2·6H2O (1.0), CaCl2 (1.8), NaH2PO4·H2O (0.4), NaHCO3 (11.9), glucose (5.61), and indomethacin (3 × 10^–7 mol/L). The solution was continuously bubbled with a 95% O2:5% CO2 mixture and maintained at 37 °C under a constant load of 0.5 g (Hugo Sachs Hebel–Messvorsatz (Tl-2)/HF-modem; Hugo Sachs Elektronik, Hugstetten, Germany) connected to a pen recorder (Kipp & Zonen BD41, Delft, Holland). During an equilibration period of 40 min, Tyrode’s buffer was changed every 10 min. The first cumulative concentration–response curve was determined for methacholine (10 nM to 3 mM) at increasing concentrations spaced by 3- or 3.3-fold. The second to the fourth (or fifth) curves were measured in the presence of an increasing concentration of antagonist (incubation time 20 min). The pA2 values were calculated according to Arunlakshana and Schild.[37] Statistical analysis was carried out with the Students’ t test. In all tests, a p < 0.05 was considered statistically significant.

Assay [3] has as its target T1, H1R. The assay can be described thus: Ex vivo screening of histamine H1R antagonists on guinea pig ileum, variant without atropine. The settings on record: isolated guinea pig ileum, histamine as agonist. How it is done:
as §1, §2

Setting [4] is: read-out: H1R+atropine pA2 gpi ± sem (converted).
The mark [5] stands for this setting: read-out: H1R pA2 gpi ± sem (converted).

T1 sequence (P31389 whole entry): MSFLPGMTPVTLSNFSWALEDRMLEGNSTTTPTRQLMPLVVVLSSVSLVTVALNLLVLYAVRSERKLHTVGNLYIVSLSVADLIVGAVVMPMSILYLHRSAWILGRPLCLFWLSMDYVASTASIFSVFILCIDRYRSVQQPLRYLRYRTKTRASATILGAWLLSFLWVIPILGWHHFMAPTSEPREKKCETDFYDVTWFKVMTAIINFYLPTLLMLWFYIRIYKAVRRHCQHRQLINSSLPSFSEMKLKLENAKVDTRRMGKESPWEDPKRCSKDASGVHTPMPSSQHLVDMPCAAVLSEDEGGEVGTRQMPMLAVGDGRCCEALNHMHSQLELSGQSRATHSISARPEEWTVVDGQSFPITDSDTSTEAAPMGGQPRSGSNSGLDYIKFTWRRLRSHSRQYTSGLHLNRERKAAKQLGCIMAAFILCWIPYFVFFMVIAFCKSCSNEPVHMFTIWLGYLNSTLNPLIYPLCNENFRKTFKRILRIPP

Turning to `N=C(N)N(CCCCN1CCN(CCCCCCCOc2ccccc2)CC1)Cc1ccccc1` [ADS1017], the Kb in assay [1] (H1R+atropine pA2 gpi ± sem) was 251 nM; in assay [3] (H1R pA2 gpi ± sem), 331 nM. Besides, in assay [2], the “M2R/M3R pA2 gpi ± sem” value is 6.36 and 6.36 ±0.10.

Take `N=C(N)N(CCCCN1CCN(C[C@H]2CC[C@@H](COc3ccccc3)CC2)CC1)Cc1ccccc1` [ADS10227, 1-{4-{4-{[4-(phenoxymethyl)cyclohexyl]methyl}piperazin-1-yl}but-1-yl}-1-(benzyl)guanidine]: the Kb is 257 nM in assay [1] (setting [4]) and 70.8 nM in assay [3] (setting [5]). The “M2R/M3R pA2 gpi ± sem” value in assay [2] came out at 6.97±0.09.

With `[H]/N=C(/N)N(CCCCN1CCN(CC2CCC(COc3ccccc3)CC2)CC1)Cc1ccc(C(F)(F)F)cc1` (stereo not drawn) [ADS10239], the Kb in assay [1] (setting [4]) was 151 nM; in assay [3] (setting [5]), 110 nM. Moreover, the “M2R/M3R pA2 gpi ± sem” value in assay [2] was 6.46±0.11.
